What was measured:
[1] = tested on: IGFBP-1; assay: Gene expression analysis of marker genes in uterine tissue of rats carrying IUS (rods); assay type: in vivo; conditions: rat uterus, FIG. 3/4
Experimental: (§1) The local uterine action of the progestin compared to systemic side effects (dissociation) was investigated on the basis of studies using rats. The uterus of ovary-resected rats responds to implantation of progestin-containing IUS (rods) with decidualization and weight gain. The local progestin effects were also determined on the basis of changes in gene expression.
Ovary-resected female rats were treated with estradiol (E2) for three days (0.2 μg/day/animal, subcutaneous dosing). On day 4, an IUS (rod) was implanted into the right uterine horn of each animal. The left uterine horn remained untreated for internal comparison. Administration of E2 was continued with a daily dose of 0.1 μg/animal to ensure responsiveness of the uterus (maintaining progesterone-receptor expression) to progestins. Blood was taken for LH level measurements on days 4, 10 and 17. […]
Gene expression analysis was carried out with from 50 ng to 200 ng of cDNA per reaction on an SDS7900HT Real.time PCR system (Applied Biosystems, Carlsbad, USA) using TaqMan probes (Applied Biosystems; IGFBP-1 Rn00565713_m1, Cyp26a1 Rn00590308_m1, PPIA Rn00690933_m1) and the Fast Blue qPCR MasterMix Plus (Eurogentec, Liège, Belgium; #RT-QP2X-03+FB). For relative quantification, cyclophilin A (PPIA) was used as an endogenous control. Relative expression levels were calculated according to the comparative delta delta CT method.

[2] = In vivo break-down in animal species; conditions: all animal species studied in vivo
[3] = In-vitro metabolic studies (liver); assay type: in vitro ADME; conditions: all in-vitro metabolic studies (liver)
[4] = tested on: uterus; assay: Uterine horn weight gain after implantation of progestin-containing IUS (rod) in ovary-resected rats; assay type: in vivo, rat; conditions: IUS (rod) in right uterine horn, FIG. 1/4
Experimental: as §1
(§2) Ovary-resected female rats were treated with estradiol (E2) for three days (0.2 μg/day/animal, subcutaneous dosing). On day 4, an IUS (rod) was implanted into the right uterine horn of each animal. The left uterine horn remained untreated for internal comparison. Administration of E2 was continued with a daily dose of 0.1 μg/animal to ensure responsiveness of the uterus (maintaining progesterone-receptor expression) to progestins. Blood was taken for LH level measurements on days 4, 10 and 17.

[5] = In vitro (liver) break-down for humans; assay type: in vitro ADME; conditions: human liver in vitro
Experimental: The rapid in-vitro breakdown in the liver may also indicate rapid in-vivo breakdown, resulting in a very low systemic exposition of 18-methyl-15β,16β-methylene-19-nor-20-spirox-4-en-3-one and 18-Methyl-6α,7α,15β,16β-dimethylene-19-nor-20-spirox-4-en-3-one after administration through an IUS being calculated. The expected substance levels (Css=concentration at steady state) are calculated from the rate of release from the IUS divided by the clearance. Using a dose of 20 μg per day and woman, which corresponds to that of Mirena, gives a calculated systemic exposition (load) for 18-methyl-15β,16β-methylene-19-nor-20-spirox-4-en-3-one and 18-methyl-6α,7α,15β,16β-dimethylene-19-nor-20-spirox-4-en-3-one, which is over 30 times lower in comparison with Mirena®.

[6] = tested on: luteinizing hormone (LH); assay: Serum LH level in ovary-resected rats carrying IUS (rod), as a sign of systemic effect; assay type: in vivo, rat; conditions: FIG. 2/4
Experimental: Serum levels of luteinizing hormone (LH) are used for detecting systemic effects of the locally administered progestin. Basal serum-LH levels of ovary-resected rats are elevated compared to the LH levels of intact control animals. Undesired systemic efficacy of the uterine-administered progestin can be detected by a decrease in the LH level.
as §2

[7] = target: T1, human androgen receptor (Homo sapiens, UniProt P10275); assay: hAR transactivation in PC3 cells stably transfected with hAR and MTV-luc reporter gene; assay type: cell-based; conditions: hAR, MTV-luc reporter
T1 construct: expressed in transfected cells; host or cells: PC3 (human prostate carcinoma) cells, stably transfected with hAR and the MTV-luc reporter
T1 sequence (P10275 1-920): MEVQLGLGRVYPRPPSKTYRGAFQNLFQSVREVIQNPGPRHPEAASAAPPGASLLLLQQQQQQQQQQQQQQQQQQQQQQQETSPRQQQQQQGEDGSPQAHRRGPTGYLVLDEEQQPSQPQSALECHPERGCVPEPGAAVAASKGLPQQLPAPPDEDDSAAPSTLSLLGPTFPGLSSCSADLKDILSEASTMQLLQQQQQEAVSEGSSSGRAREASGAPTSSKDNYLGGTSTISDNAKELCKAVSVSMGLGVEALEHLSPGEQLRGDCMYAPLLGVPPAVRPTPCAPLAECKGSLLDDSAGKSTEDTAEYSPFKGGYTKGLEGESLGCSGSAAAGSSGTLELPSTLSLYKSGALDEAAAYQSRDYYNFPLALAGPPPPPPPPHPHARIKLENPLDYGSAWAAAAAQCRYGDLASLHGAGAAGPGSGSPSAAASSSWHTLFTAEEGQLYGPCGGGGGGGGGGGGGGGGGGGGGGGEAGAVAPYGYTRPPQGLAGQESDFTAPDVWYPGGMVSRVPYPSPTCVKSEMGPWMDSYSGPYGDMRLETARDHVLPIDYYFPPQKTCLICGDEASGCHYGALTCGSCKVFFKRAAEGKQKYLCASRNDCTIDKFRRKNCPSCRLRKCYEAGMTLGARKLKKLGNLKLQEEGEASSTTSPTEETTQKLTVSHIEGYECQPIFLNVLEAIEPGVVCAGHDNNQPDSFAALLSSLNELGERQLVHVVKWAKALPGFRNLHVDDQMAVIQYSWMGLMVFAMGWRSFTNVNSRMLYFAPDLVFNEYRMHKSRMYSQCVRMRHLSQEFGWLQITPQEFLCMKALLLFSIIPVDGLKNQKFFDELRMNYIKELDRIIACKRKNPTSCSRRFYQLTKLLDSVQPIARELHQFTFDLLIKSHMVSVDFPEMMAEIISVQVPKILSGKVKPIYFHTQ
Experimental: For this, different concentrations of the test substances were to cells with stable expression of the human androgen receptor, and activation of the androgen receptor can be detected via a reporter gene.
For transactivation studies, PC3 (human prostate carcinoma) cells which have been stably transfected with hAR and the MTV-luc reporter gene were used. […] The cells were cultured at 37° C. and 5% CO2. The test medium corresponded to the culture medium, except that 10% FCS was replaced with 5% activated carbon-treated FCS (CCS). Cells were seeded in wells of a 96 well plate (“CulturPlate” from Packard #6005180) with 2×10^4 cells/well/200 μl of test medium. The cells were incubated with different concentrations of the test substances, and 80 μl of substrate were measured using the “steadylite HTS Reporter Gene Assay System” from Perkin Elmer.

[8] = Mirena use; cited from earlier work
[9] = dose range tested: compound A 0.6-10 μg per animal and day, compound B 1-45 μg/animal and day

| Compound | rate of release from the IUS at which IGFBP-1 gene expression is induced, lower than with levonorgestrel [1] | break-down rate in vivo [2] | break-down rate in in-vitro metabolic studies (liver) [3] | local efficacy by way of weight gain in the IUS-carrying uterine horn [4] | break-down rate in vitro (liver) for humans [5] | LH decrease (systemic side effect) ([6]; 10 μg/animal and day dose) | LH decrease (systemic side effect) [6, 9] | EC50 [7] [nM] | average plasma levels of active ingredient [8] |
| --- | --- | --- | --- | --- | --- | --- | --- | --- | --- |
| CC[C@]12CCC3C4CCC(=O)C=C4CCC3C1[C@@H]1C[C@@H]1[C@@]21CCCO1 (stereo partly drawn) [compound A, 18-methyl-15β,16β-methylene-19-nor-20-spirox-4-en-3-one] | approx. 7 × | very fast break-down rate | very fast break-down rate | dose-dependent local efficacy by way of weight gain | Very rapid break-down rates | exception | no LH decrease |  |  |
| CC[C@]12CCC3C4CCC(=O)C=C4C4CC4C3C1[C@@H]1C[C@@H]1[C@@]21CCCO1 (stereo partly drawn) [compound B, 18-methyl-6α,7α,15β,16β-dimethylene-19-nor-20-spirox-4-en-3-one] |  | very fast break-down rate | very fast break-down rate | dose-dependent local efficacy by way of weight gain | Very rapid break-down rates |  | no LH decrease | 56 |  |
| C#C[C@]1(O)CC[C@H]2[C@@H]3CCC4=CC(=O)CC[C@@H]4[C@H]3CC[C@@]21CC [levonorgestrel] |  |  |  |  |  |  |  |  | around 206 pg/ml |

Reference: patent US20150119372A1, “APPLICATION OF 18-METHYL-15SS,16SS-METHYLENE-19-NOR-20-SPIROX-4-EN-3-ONE SYSTEMS IN THE TREATMENT OF MENORRHAGIA, AS WELL AS INTRAUTERINE SYSTEMS CONTAINING 18-METHYL-15SS,16SS-METHYLENE-19-NOR-20-SPIROX-4-EN-3-ONE FOR TREATING UTERINE BLEEDING DISORDERS” (BAYER PHARMA AKTIENGESELLSCHAFT, priority 2012, published 2015)
